{
  "source": "patent US20250041311A1",
  "about": "“Compound For Treating or Preventing Vimentin-Mediated Diseases” (Aluda Pharmaceuticals, Inc., priority 2021, published 2025)",
  "key": {"[1]": {"tested_on": "Huh7-NC12 cells", "test": "Exosome release from liver cancer cells (luciferase exosome reporter, ExoHTP platform)", "format": "cell-based", "conditions": "48 h, luciferase activity of exosomes purified from supernatant"}, "[2]": {"tested_on": "Huh7-NC12 cells", "test": "PrestoBlue cell viability of liver cancer cells", "conditions": "for cytotoxicity: 48 h, highest concentration 10,000 nM, high concentrations 3,160 and 10,000 nM; for survival rate: after two days of treatment; for toxicity to Huh7-NC12 cells: high concentrations (>3160 nM)"}, "[3]": {"target": "T1, GFAP (Homo sapiens, UniProt P14136)", "T1 construct": "endogenous in cells; host or cells: U87 human glioma cells", "T1 sequence (P14136 whole entry)": "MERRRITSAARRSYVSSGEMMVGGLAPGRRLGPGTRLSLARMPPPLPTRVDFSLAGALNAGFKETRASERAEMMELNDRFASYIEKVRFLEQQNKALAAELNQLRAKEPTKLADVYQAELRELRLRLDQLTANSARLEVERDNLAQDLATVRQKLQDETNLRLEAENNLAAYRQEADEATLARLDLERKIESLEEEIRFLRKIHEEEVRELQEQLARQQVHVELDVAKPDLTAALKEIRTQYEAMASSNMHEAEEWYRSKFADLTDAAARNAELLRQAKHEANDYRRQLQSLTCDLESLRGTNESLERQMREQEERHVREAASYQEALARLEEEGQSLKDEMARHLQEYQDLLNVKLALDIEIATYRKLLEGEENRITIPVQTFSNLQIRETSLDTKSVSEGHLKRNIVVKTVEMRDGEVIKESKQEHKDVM", "test": "Immunofluorescence microscopy of the GFAP network (specificity control)", "format": "cell-based", "conditions": "U87 glioma cells treated with C50"}, "[4]": {"target": "T2, vimentin (Homo sapiens, UniProt P08670)", "test": "Fluorescence recovery after photobleaching (FRAP) of GFP-vimentin in U87 cells", "format": "cell-based", "set-up": "expressed in transfected cells; host or cells: U87 human glioma cells, transient transfection", "conditions": "cells treated with C50 for 24 h, vs DMSO", "procedure": "(§1) Cell culture: Human cancer cell lines were obtained from the Institute of Cell Research, Chinese Academy of Sciences or ATCC. Cells were cultured in an incubator with 5% CO2 in RMPI1640 supplemented with 10% fetal bovine serum, 2 mM L-glutamine and 1× penicillin-streptomycin (100 IU/ml-100 μg/ml).\nFluorescence recovery after photobleaching (FRAP): Cells were cultured on 4-well coverslips and transiently transfected with pEGFP-Vim expression vector using Lipofectamine 2000 (Invitrogen) following the manufacturer's instructions. Twenty-four h after transfection, cells were treated with DMSO or C50 for 24 h. FRAP experiments were performed using a confocal microscope system (Fluoview 1,000; Olympus). For photobleaching, the region of interest (ROI) was irradiated with 60% laser power (488 nm) for 2 s. Images were taken every 30 s for 5 min to monitor fluorescence recovery. Fluorescence intensities were corrected for sample background at each time point. After data collection, the fluorescence intensity of ROI was extracted by ImageJ software."}, "[5]": {"target": "T2, vimentin", "test": "Immunofluorescence microscopy of the vimentin intermediate filament network", "format": "cell-based", "set-up": "react with mouse anti-VIM antibody (Sigma, 1:200) at room temperature; endogenous in cells; host or cells: U87 human glioma cells", "conditions": "U87 cells treated with C50 for 24 h, confocal immunofluorescence", "procedure": "as §1\nImmunofluorescence microscopy: Cells were cultured in 4-well coverslips, treated with DMSO or C50 for 24 h, fixed with 2% paraformaldehyde at 37° C. for 15 minutes, permeabilized in 0.2% Triton X-100 PBS at room temperature Wash for 15 min, wash 3 times with 0.05% Triton X-100 TBS, block with 10% normal goat serum in 0.05% Triton X-100 TBS, then react with mouse anti-VIM antibody (Sigma, 1:200) at room temperature Incubate for 3 h. Cells were washed 3 times with 0.05% Triton X-100 in PBS, and then incubated with Cy TM3-conjugated anti-mouse IgG antibody (Jackson, 1:300) for 1 h at room temperature. Nuclei were stained with DAPI for 5-10 min. Immunofluorescence was observed using a FV1000 (Olympus) confocal microscope."}, "[6]": {"tested_on": "EAE mice", "test": "MOG-induced experimental autoimmune encephalomyelitis (EAE) mouse model", "format": "in vivo", "conditions": "FTY720 1 mg/kg, oral once a day, vs vehicle"}},
  "note": "“Also recorded” adds a separate entry of the source.",
  "data": [
    {"smiles": "O=C(Nc1ccc(F)cc1)Nc1ccc(Nc2nc(/C=C/c3ccc(Cl)cc3)nc(N3CCOCC3)n2)cc1", "note": "[Compound C45]", "values": [
      {"measurement": "inhibition of exosome release", "setting": "[1]", "value": "stronger inhibitory effects than GW4869; also recorded: effectively inhibit the release of exosomes"},
      {"measurement": "cytotoxicity", "setting": "[2]", "value": "not cytotoxic"},
      {"measurement": "survival rate", "setting": "[2]", "value": "about 90%"},
      {"measurement": "toxicity to Huh7-NC12 cells", "setting": "[2]", "value": "not toxic"}
    ]},
    {"smiles": "O=C(Nc1ccc(Cl)cc1)Nc1ccc(Nc2nc(/C=C/c3ccccc3)nc(N3CCOCC3)n2)cc1", "note": "[Compound C50]", "values": [
      {"measurement": "structural changes of GFAP intermediate filament protein", "setting": "[3]", "value": "no structural changes"},
      {"measurement": "time required to recover fluorescence in the photobleached region", "setting": "[4]", "value": "significantly delayed"},
      {"measurement": "reorganization of the vimentin network", "setting": "[5]", "value": "significant reorganization of the vimentin network"}
    ]},
    {"smiles": "O=C(Nc1ccc(Nc2nc(/C=C/c3ccccc3)nc(N3CCOCC3)n2)cc1)Nc1ccnc(Cl)c1", "note": "[Compound C52M]", "values": [
      {"measurement": "inhibition of exosome release", "setting": "[1]", "value": "effectively inhibit the release of exosomes"},
      {"measurement": "cytotoxicity", "setting": "[2]", "value": "cytotoxic"},
      {"measurement": "toxicity to Huh7-NC12 cells", "setting": "[2]", "value": "cytotoxic"}
    ]},
    {"smiles": "O=C(Nc1ccc(Nc2nc(/C=C/c3ccccc3)nc(N3CCOCC3)n2)cc1)Nc1ccc(C(=O)O)cc1", "note": "[Compound C69A]", "values": [
      {"measurement": "inhibition of exosome release", "setting": "[1]", "value": "stronger inhibitory effects than GW4869; also recorded: effectively inhibit the release of exosomes"},
      {"measurement": "cytotoxicity", "setting": "[2]", "value": "not cytotoxic"},
      {"measurement": "survival rate", "setting": "[2]", "value": "about 90%"},
      {"measurement": "toxicity to Huh7-NC12 cells", "setting": "[2]", "value": "not toxic"}
    ]},
    {"smiles": "CN1CCN(C(=O)c2ccc(NC(=O)Nc3ccc(Nc4nc(/C=C/c5ccccc5)nc(N5CCOCC5)n4)cc3)cc2)CC1", "note": "[Compound C69B]", "values": [
      {"measurement": "inhibition of exosome release", "setting": "[1]", "value": "effectively inhibit the release of exosomes"},
      {"measurement": "cytotoxicity", "setting": "[2]", "value": "cytotoxic"},
      {"measurement": "toxicity to Huh7-NC12 cells", "setting": "[2]", "value": "cytotoxic"}
    ]},
    {"smiles": "CCCCCCCCc1ccc(CCC(N)(CO)CO)cc1", "note": "[FTY720, reference compound]", "values": [
      {"measurement": "animal weight loss", "setting": "[6]", "value": "reduced"},
      {"measurement": "clinical disease scores", "setting": "[6]", "value": "improved"}
    ]},
    {"smiles": "O=C(/C=C/c1ccc(/C=C/C(=O)Nc2ccc(C3=NCCN3)cc2)cc1)Nc1ccc(C2=NCCN2)cc1", "note": "[GW4869, reference compound]", "values": [
      {"measurement": "cytotoxicity", "setting": "[2]", "value": "not cytotoxic"},
      {"measurement": "survival rate", "setting": "[2]", "value": "about 90%"}
    ]}
  ]
}
